Experimental data reported in ChEMBL document CHEMBL5055633, “Amphipathic Barbiturates as Mimics of Antimicrobial Peptides and the Marine Natural Products Eusynstyelamides with Activity against Multi-resistant Clinical Isolates” (J Med Chem, 2021).
The source made the active and inactive calls. No cut-off for these calls is given here.

Experiments:
[1] = system: Escherichia coli; experiment: Antibacterial activity against Escherichia coli EC106-09 infected in mouse peritonitis model assessed as reduction in colony forming unit at 1.4 mg/kg, ip treatment repeated after 3 hrs relative to control; type: functional
[2] = system: Pseudomonas aeruginosa; experiment: Antimicrobial activity against verona integron-encoded metallo-beta-lactamase-4 producing Pseudomonas aeruginosa K34-73 assessed as reduction in bacterial growth incubated for 48 hrs by microdilution method; type: functional
[3] = system: Escherichia coli; experiment: Antimicrobial activity against Escherichia coli ATCC 25922 assessed as reduction in bacterial growth incubated for 48 hrs by microdilution susceptibility test; type: functional
[4] = system: Enterococcus faecium; experiment: Antimicrobial activity against extended spectrum-lactamase-carbapenemas producing Enterococcus faecium strain 50673722 assessed as reduction in bacterial growth incubated for 48 hrs by microdilution method; type: functional
[5] = system: Pseudomonas aeruginosa; experiment: Antimicrobial activity against imipenem-type carbapenemase-14 producing Pseudomonas aeruginosa K44-24 assessed as reduction in bacterial growth incubated for 48 hrs by microdilution method; type: functional
[6] = system: Streptococcus pneumoniae; experiment: Antibacterial activity against in […] 168 assessed as decrease in bacterial viability at 6.3 ug/ml by cell viability assay; type: functional, organism-based; settings: dose 6.3 µg/ml
[7] = system: Staphylococcus aureus; experiment: Antimicrobial activity against extended spectrum-lactamase-carbapenemas producing Staphylococcus aureus N315 assessed as reduction in bacterial growth incubated for 48 hrs by microdilution method; type: functional
[8] = Hemolytic activity in human erythrocytes incubated for 1 hr by microplate reader; type: functional, cell-based; settings: erythrocyte
[9] = system: Escherichia coli; experiment: Antimicrobial activity against New Delhi metallo-beta lactamase-1 producing Escherichia coli 50676002 assessed as reduction in bacterial growth incubated for 48 hrs by microdilution method; type: functional
[10] = system: Streptococcus pneumoniae; experiment: Antibacterial activity against Klebsiella pneumoniae KP3010 infected in mouse peritonitis model assessed as reduction in colony forming unit at 1.4 mg/kg, ip treatment repeated after 3 hrs relative to control; type: functional
[11] = system: Escherichia coli; experiment: Membrano-lytic effect in Escherichia coli HB101 assessed as decrease in bacterial viability at 3.1 ug/ml by luciferase based real-time membrane integrity assay; type: functional, organism-based; settings: dose 3.1 µg/ml
[12] = system: Acinetobacter baumannii; experiment: Antimicrobial activity against oxacillinase-58 producing Acinetobacter baumannii K12-21 assessed as reduction in bacterial growth incubated for 48 hrs by microdilution method; type: functional
[13] = system: Escherichia coli; experiment: Antimicrobial activity against verona integron-encoded metallo-beta-lactamase-29-producing Escherichia coli 50639799 assessed as reduction in bacterial growth incubated for 48 hrs by microdilution method; type: functional
[14] = Antimicrobial activity against New Delhi metallo-beta lactamase-1 Klebsiella pneumoniae K66-45 assessed as reduction in bacterial growth incubated for 48 hrs by microdilution method; type: functional
[15] = system: MRC5; experiment: Cytotoxicity against human MRC5 cells assessed as reduction in cell viability incubated for 24 hrs by colorimetric tetrazolium assay; type: functional, cell-based; settings: MRC5, 24 h
[16] = system: Acinetobacter baumannii; experiment: Antimicrobial activity against oxacillinase-23 producing Acinetobacter baumannii K47-42 assessed as reduction in bacterial growth incubated for 48 hrs by microdilution method; type: functional
[17] = system: Acinetobacter baumannii; experiment: Antimicrobial activity against oxacillinase-23 producing Acinetobacter baumannii K63-58 assessed as reduction in bacterial growth incubated for 48 hrs by microdilution method; type: functional
[18] = Antimicrobial activity against verona integron-encoded metallo-beta-lactamase -1 producing Klebsiella pneumoniae 50667959 assessed as reduction in bacterial growth incubated for 48 hrs by microdilution method; type: functional
[19] = system: Escherichia coli; experiment: Membrano-lytic effect in Escherichia coli HB101 assessed as decrease in bacterial viability at 6.3 ug/ml by luciferase based real-time membrane integrity assay; type: functional, organism-based; settings: dose 6.3 µg/ml
[20] = Antimicrobial activity against carbapenemase producing Klebsiella pneumoniae K47-25 assessed as reduction in bacterial growth incubated for 48 hrs by microdilution method; type: functional
[21] = system: Escherichia coli; experiment: Antimicrobial activity against New Delhi metallo-beta lactamase-1 producing Escherichia coli 50739822 assessed as reduction in bacterial growth incubated for 48 hrs by microdilution method; type: functional
[22] = system: Mus musculus; experiment: Toxicity in mouse assessed as tolerability at 2.8 to 3.6 mg/kg, ip; type: organism-based; settings: in vivo, dose 2.8-3.6 mg/kg
[23] = system: Staphylococcus aureus; experiment: Antimicrobial activity against Staphylococcus aureus ATCC 9144 assessed as reduction in bacterial growth incubated for 48 hrs by microdilution susceptibility test; type: functional
[24] = system: Enterococcus faecium; experiment: Antimicrobial activity against extended spectrum-lactamase-carbapenemas producing Enterococcus faecium strain K36-18 assessed as reduction in bacterial growth incubated for 48 hrs by microdilution method; type: functional
[25] = system: Escherichia coli; experiment: Antibacterial activity against Escherichia coli HB101 assessed as decrease in bacterial viability at 6.3 ug/ml by cell viability assay; type: functional, organism-based; settings: dose 6.3 µg/ml
[26] = system: Staphylococcus aureus; experiment: Antimicrobial activity against extended spectrum-lactamase-carbapenemas producing Staphylococcus aureus strain 85/2082 assessed as reduction in bacterial growth incubated for 48 hrs by microdilution method; type: functional
[27] = Toxicity in ip dosed mouse assessed as maximum tolerated dose; type: organism-based; settings: in vivo
[28] = system: Staphylococcus aureus; experiment: Antimicrobial activity against extended spectrum-lactamase-carbapenemas producing Staphylococcus aureus strain WIS assessed as reduction in bacterial growth incubated for 48 hrs by microdilution method; type: functional
[29] = system: Pseudomonas aeruginosa; experiment: Antimicrobial activity against verona integron-encoded metallo-beta-lactamase producing Pseudomonas aeruginosa 50692520 assessed as reduction in bacterial growth incubated for 48 hrs by microdilution method; type: functional
[30] = system: Escherichia coli; experiment: Antibacterial activity against Escherichia coli EC106-09 infected in mouse peritonitis model assessed as reduction in colony forming unit at 1.4 mg/kg, ip relative to control; type: functional
[31] = system: Corynebacterium glutamicum; experiment: Antimicrobial activity against Corynebacterium glutamicum ATCC 13032 assessed as reduction in bacterial growth incubated for 48 hrs by microdilution susceptibility test; type: functional
[32] = system: Pseudomonas aeruginosa; experiment: Antimicrobial activity against New Delhi metallo-beta lactamase-1 producing Pseudomonas aeruginosa 50692172 assessed as reduction in bacterial growth incubated for 48 hrs by microdilution method; type: functional
[33] = system: HepG2; experiment: Cytotoxicity against human HepG2 cells assessed as reduction in cell viability incubated for 24 hrs by colorimetric tetrazolium assay; type: functional, cell-based; settings: HepG2, 24 h
[34] = system: Escherichia coli; experiment: Antimicrobial activity against oxacillinase-producing Escherichia coli 50579417 assessed as reduction in bacterial growth incubated for 48 hrs by microdilution method; type: functional
[35] = Antimicrobial activity against New Delhi metallo-beta lactamase-1 and oxacillinase -181 producing Klebsiella pneumoniae 50531633 assessed as reduction in bacterial growth incubated for 48 hrs by microdilution method; type: functional
[36] = system: Streptococcus pneumoniae; experiment: Antibacterial activity against Klebsiella pneumoniae KP3010 infected in mouse peritonitis model assessed as reduction in colony forming unit at 1.4 mg/kg, ip relative to control; type: functional
[37] = system: Escherichia coli; experiment: Antibacterial activity against in Escherichia coli HB101 assessed as decrease in bacterial viability at 3.1 ug/ml by cell viability assay; type: functional, organism-based; settings: dose 3.1 µg/ml
[38] = system: Enterococcus faecium; experiment: Antimicrobial activity against extended spectrum-lactamase-carbapenemas producing Enterococcus faecium strain 50901530 assessed as reduction in bacterial growth incubated for 48 hrs by microdilution method; type: functional
[39] = system: Staphylococcus aureus; experiment: Antimicrobial activity against extended spectrum-lactamase-carbapenemas producing Staphylococcus aureus strain IHT 99040 assessed as reduction in bacterial growth incubated for 48 hrs by microdilution method; type: functional
[40] = system: Streptococcus pneumoniae; experiment: Antibacterial activity against in […] 168 assessed as decrease in bacterial viability at 3.1 ug/ml by cell viability assay; type: functional, organism-based; settings: dose 3.1 µg/ml
[41] = system: Enterococcus faecium; experiment: Antimicrobial activity against extended spectrum-lactamase-carbapenemas producing Enterococcus faecium strain 50758899 assessed as reduction in bacterial growth incubated for 48 hrs by microdilution method; type: functional
[42] = system: Enterococcus faecium; experiment: Antimicrobial activity against extended spectrum-lactamase-carbapenemas producing Enterococcus faecium strain TUH.50-22 assessed as reduction in bacterial growth incubated for 48 hrs by microdilution method; type: functional
[43] = system: Staphylococcus aureus; experiment: Antimicrobial activity against extended spectrum-lactamase-carbapenemas producing Staphylococcus aureus NCTC 10442 assessed as reduction in bacterial growth incubated for 48 hrs by microdilution method; type: functional
[44] = system: Escherichia coli; experiment: Antimicrobial activity against imipenem-type carbapenemase-26 producing Escherichia coli 50857972 assessed as reduction in bacterial growth incubated for 48 hrs by microdilution method; type: functional
[45] = system: Acinetobacter baumannii; experiment: Antimicrobial activity against oxacillinase-23 producing Acinetobacter baumannii K44-35 assessed as reduction in bacterial growth incubated for 48 hrs by microdilution method; type: functional
[46] = Antimicrobial activity against oxacillinase-245 producing Klebsiella pneumoniae 50625602 assessed as reduction in bacterial growth incubated for 48 hrs by microdilution method; type: functional
[47] = system: Pseudomonas aeruginosa; experiment: Antimicrobial activity against verona integron-encoded metallo-beta-lactamase-2 producing Pseudomonas aeruginosa K34-7 assessed as reduction in bacterial growth incubated for 48 hrs by microdilution method; type: functional
[48] = system: Acinetobacter baumannii; experiment: Antimicrobial activity against oxacillinase-24 producing Acinetobacter baumannii K55-13 assessed as reduction in bacterial growth incubated for 48 hrs by microdilution method; type: functional
[49] = system: Pseudomonas aeruginosa; experiment: Antimicrobial activity against Pseudomonas aeruginosa PAO1 assessed as reduction in bacterial growth incubated for 48 hrs by microdilution susceptibility test; type: functional

With N=C(N)NCCCCN1C(=O)N(CCCCNC(=N)N)C(=O)C(Cc2cc(Br)cc(Br)c2)(Cc2cc(Br)cc(Br)c2)C1=O.O=C(O)C(F)(F)F.O=C(O)C(F)(F)F the inhibition in vivo at 1.4 mg/kg [1] was 97%, the MIC [2] was 8 µg/mL and the MIC [3] was 2 µg/mL. For the same molecule, the MIC [4] was 4 µg/mL, the MIC [5] was 8 µg/mL and the Activity [6] was “Active”. It also gave an MIC [7] of 2 µg/mL, an EC50 [8] of 62 µg/mL and an MIC [9] of 4 µg/mL. For the same molecule, the inhibition in vivo at 1.4 mg/kg [10] was 97%, the Activity [11] was “Active” and the MIC [12] was 4 µg/mL. The MIC [13] was 4 µg/mL, the MIC [14] was 4 µg/mL and the IC50 [15] was 11 µg/mL. It also gave an MIC [16] of 4 µg/mL, an MIC [17] of 4 µg/mL and an MIC [18] of 4 µg/mL. The Activity [19] was “Active”, the MIC [20] was 4 µg/mL and the MIC [21] was 4 µg/mL. For the same molecule, the Activity [22] was “Non-Toxic”, the MIC [23] was 1 µg/mL and the MIC [24] was 4 µg/mL. The Activity [25] was “Active”, the MIC [26] was 2 µg/mL and the MTD [27] was 7 mg/kg. The MIC [28] was 2 µg/mL, the MIC [29] was 16 µg/mL and the inhibition in vivo at 1.4 mg/kg [30] was 90%. For the same molecule, the MIC [31] was 0.25 µg/mL, the MIC [32] was 8 µg/mL and the IC50 [33] was 30 µg/mL. For the same molecule, the MIC [34] was 4 µg/mL, the MIC [35] was 4 µg/mL and the inhibition in vivo at 1.4 mg/kg [36] was 98%. For the same molecule, the Activity [37] was “Active”, the MIC [38] was 2 µg/mL and the MIC [39] was 2 µg/mL. The Activity [40] was “Active”, the MIC [41] was 4 µg/mL and the MIC [42] was 2 µg/mL. The MIC [43] was 2 µg/mL, the MIC [44] was 4 µg/mL and the MIC [45] was 4 µg/mL. It also gave an MIC [46] of 4 µg/mL, an MIC [47] of 8 µg/mL and an MIC [48] of 8 µg/mL. For the same molecule, the MIC [49] was 4 µg/mL.
